From US7906491B2 (Univisitair Medisch Centrum Utrecht, priority 2002, dated 2011)

Molecular target: T1, Epac1-ΔDEP1 (Homo sapiens, UniProt O95398)
T1 sequence (O95398 191-923 limits assumed): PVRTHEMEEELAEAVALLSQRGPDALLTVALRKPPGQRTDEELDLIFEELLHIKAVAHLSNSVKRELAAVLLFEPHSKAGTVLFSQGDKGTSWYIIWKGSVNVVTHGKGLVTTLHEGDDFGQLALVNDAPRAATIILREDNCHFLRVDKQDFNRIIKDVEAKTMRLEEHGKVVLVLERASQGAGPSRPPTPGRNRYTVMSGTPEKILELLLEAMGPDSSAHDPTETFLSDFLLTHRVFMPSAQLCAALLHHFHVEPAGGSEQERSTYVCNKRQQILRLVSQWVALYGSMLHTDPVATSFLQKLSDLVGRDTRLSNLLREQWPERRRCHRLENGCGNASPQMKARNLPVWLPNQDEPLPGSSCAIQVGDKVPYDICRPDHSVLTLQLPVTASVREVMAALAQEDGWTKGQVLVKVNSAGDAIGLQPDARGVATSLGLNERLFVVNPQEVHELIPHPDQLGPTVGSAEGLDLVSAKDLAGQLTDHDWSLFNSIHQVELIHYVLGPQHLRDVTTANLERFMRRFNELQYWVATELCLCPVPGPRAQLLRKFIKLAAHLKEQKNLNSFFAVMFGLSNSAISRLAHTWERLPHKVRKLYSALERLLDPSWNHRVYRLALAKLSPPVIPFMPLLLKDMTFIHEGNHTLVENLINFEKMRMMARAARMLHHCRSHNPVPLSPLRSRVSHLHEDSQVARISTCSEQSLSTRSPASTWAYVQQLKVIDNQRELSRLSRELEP
Assay: In vitro GEF assay: Epac activity in the exchange reaction towards Rap (mantGDP-loaded Rap1b); on Relative activity of Epac*: key: +++: activity comparible to I-007; ++: activity between I-007 and cAMP; +: activity comparible to cAMP; ±: activity less than cAMP
Format: biochemical
Method: In vitro GEF assays were performed as described (3,16). […] Buffer conditions were 50 mM Tris pH7.4, 150 mM NaCl, 5% glycerol, 5 mM DTE, 60 μM GTP. Reactions were carried out in 96-well plates and measured in a Cary Eclipse from Varian Inc., using the manufacturers software.

CO[C@@H]1[C@@H]2OP(=O)(O)OC[C@H]2O[C@H]1n1c(Sc2ccc(Cl)cc2)nc2c(N)ncnc21 [Compound I-007, 8-(4-chloro-phenylthio)-2′-O-methyladenosine-3′,5′-cyclic monophosphate]
maximal activity of Epac1 compared to cAMP (in vitro): three-fold higher | Relative activity of Epac* (in vitro in the exchange reaction towards Rap): +++ | EC50 (in vitro, FIG. 4, read-out: Half-maximal activation of Epac1): 2200 nM
